Results on 2 compounds are retold here after article PMC10347458 (Leukemia, 2023).

The format of series [1] is in vivo, NSG mice. Particulars: for AUC(0-inf) / CL/F / Cmax / Tmax / half-life / AUC(0-t): NSG, mouse, in vivo, po; for AUC(0-t): AUC0–24hrs.
A further series concerns human T-ALL samples. In words: Ex vivo leukemia sensitivity. The format is cell-based.
The subject of a further series is pCRKL. The settings on record: chronic myeloid leukemia (CML) patients; cited from earlier work.
The subject of series [2] is LCK-activated T-ALL PDX models. The experiment in a line: In vivo evaluation of ponatinib efficacy in T-ALL PDXs. Set-up: species or system NSG mice. Particulars: 30 mg/kg once daily oral, three T-ALL PDX models, blast % in peripheral blood.
In series [3] the target is pLCK (phosphorylated LCK) (Homo sapiens, UniProt P06239). The experiment in a line: PD: pLCK. It is filed as in vivo. The settings on record: for Median duration of pLCK/LCK <50% (10th-90th percentile): mice (Table 2).
For the next series, the target named is LCK (T316I) in KOPT-K1-R (Homo sapiens, UniProt P06239, T316I). Particulars: 100nM, 3 hrs treatment.

Values after ≈ are worked out from the molar mass of the structure shown. Where two headings read alike, the source gives them in different places.

Chain of pLCK (phosphorylated LCK) (P06239 whole entry): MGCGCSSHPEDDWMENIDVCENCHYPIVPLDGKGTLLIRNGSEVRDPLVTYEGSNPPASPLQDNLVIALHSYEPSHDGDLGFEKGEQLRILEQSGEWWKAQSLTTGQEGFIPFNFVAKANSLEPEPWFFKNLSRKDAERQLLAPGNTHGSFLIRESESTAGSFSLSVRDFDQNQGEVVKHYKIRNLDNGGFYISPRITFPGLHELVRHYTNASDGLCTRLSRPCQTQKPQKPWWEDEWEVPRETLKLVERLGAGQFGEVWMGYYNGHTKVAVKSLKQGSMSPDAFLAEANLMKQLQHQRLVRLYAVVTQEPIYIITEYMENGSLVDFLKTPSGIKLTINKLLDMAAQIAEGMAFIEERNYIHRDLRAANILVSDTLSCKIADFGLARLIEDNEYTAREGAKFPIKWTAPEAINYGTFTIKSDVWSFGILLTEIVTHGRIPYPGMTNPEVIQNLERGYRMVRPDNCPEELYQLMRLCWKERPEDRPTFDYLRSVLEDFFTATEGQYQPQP
Chain of LCK (T316I) in KOPT-K1-R (P06239 whole entry T316I): as the sequence (P06239 whole entry) above, with T316I counted along it

Regarding `Cc1nc(Nc2ncc(C(=O)Nc3c(C)cccc3Cl)s2)cc(N2CCN(CCO)CC2)n1` [dasatinib], in series [1] (20 mg/kg), the AUC(0-inf) was 500 ng·h/mL, the CL/F was determined as 667 mL/min/kg, the maximum concentration (Cmax) came to 102 ng/mL and the Tmax was 1.17 h. In series [1] (20 mg/kg), this compound showed a half-life of 0.35 h. Besides, in series [1] (40 mg/kg), the AUC(0-inf) turned out to be 1950 ng·h/mL, the CL/F came to 341 mL/min/kg, the Cmax was 366 ng/mL and the Tmax is 1.17 h. In series [1] (40 mg/kg), this compound showed a half-life of 0.34 h and an exposure AUC(0-t) of 1940 ng·h/mL. Besides, the “Dasatinib sensitivity (LC50 <80nM) observed” value with human T-ALL samples (adult T-ALL) is 9.1%. Also, in the series with human T-ALL samples (pediatric T-ALL), the “Dasatinib sensitivity (LC50 <80nM) observed” value was determined as 47.5%. The “Time above 50% pCRKL inhibition considered sufficient to elicit a clinical response” value in the series with pCRKL is reported as 12.8 hrs per day.
Take `Cc1ccc(C(=O)Nc2ccc(CN3CCN(C)CC3)c(C(F)(F)F)c2)cc1C#Cc1cnc2cccnn12` [ponatinib]: in series [1] (15 mg/kg), the AUC(0-inf) was 1530 ng·h/mL, the apparent clearance CL/F is 163 mL/min/kg, the Cmax turned out to be 181 ng/mL and the time of peak concentration (Tmax) turned out to be 3.04 h. This compound showed a half-life in series [1] (15 mg/kg) of 1.92 h. This compound also gave an AUC(0-t) in series [1] (15 mg/kg, ponatinib 15 mg (15 mg/kg) single oral dose, NSG mice, median (5th-95th percentile)) of 1530 ng·h/mL. For the same compound, in series [1] (30 mg/kg), the total exposure AUC(0-inf) was determined as 3010 ng·h/mL, the CL/F was 166 mL/min/kg, the highest level (Cmax) was 356 ng/mL and the Tmax was 3.08 h. In addition, the half-life in series [1] (30 mg/kg) is 1.92 h. In series [1] (30 mg/kg, ponatinib 30 mg (30 mg/kg) single oral dose, NSG mice, median (5th-95th percentile)), this compound gave an AUC(0-t) of 3000 ng·h/mL. Besides, the “AUC0–24hrs” value in series [1] (ponatinib 30 mg (30 mg/kg) single oral dose, NSG mice, median (5th-95th percentile)) is listed as 2996.56 (2707.46–3351.17) ng hr/mL. Moreover, the “LC50 compared with that of dasatinib” value in the series with human T-ALL samples (51 samples with both drugs tested, P =0.0038, Wilcoxon matched-pairs signed rank test) is “significantly lower”. Moreover, the CC50 with human T-ALL samples (Homo sapiens, read-out: Median LC50) worked out at 433 nM. Moreover, the “Samples classified as sensitive to ponatinib (LC50 cutoff 90nM)” value in the series on human T-ALL samples (all 52 T-ALL cases (n=17)) amounted to 32.7%. Moreover, in series [2], the “Leukemia growth in mice vs vehicle control” value is on record as “significantly inhibited leukemia growth”. The EC90 in series [3] (po, read-out: EC90 (CV%)) was determined as 0.063 µg/mL (≈ 0.118 µM). Besides, the “Median duration of pLCK/LCK <50% (10th-90th percentile)” value in series [3] (ponatinib 15 mg/kg oral) is 15 mg/kg 10.5 (0, 24.0) hrs/day. The “Median duration of pLCK/LCK <50% (10th-90th percentile)” value in series [3] (ponatinib 30 mg/kg oral) is 30 mg/kg 14.8 (0, 24.0) hrs/day. The “Block of LCK phosphorylation” value at LCK (T316I) in KOPT-K1-R is “around 50%”.

As usually defined, the AUC(0-inf) is total exposure, with the tail of the curve extrapolated. In general, CL/F refers to the apparent clearance, not corrected for the fraction that reaches the circulation. For orientation: Cmax means the highest concentration seen after dosing. For orientation: Tmax means the time at which the peak concentration occurs. In general, half-life refers to how long it takes for the measured level to halve. Higher therefore signals slow loss. As a reminder, the AUC(0-t) is the area under the concentration-time curve up to a stated or last time point. A low value points to less exposure. Broadly, the EC90 is the point of the concentration-response curve where the effect stands at 90%.
